The test system of the test is human ileum monolayer culture. The test is described as follows: Sustained inhibition of apical acid secretion in human organoid monolayer cell cultures (ileum). The class given is cell-based. As to conditions: Homo sapiens, 48 h; 1 μM apical, dosed day 6, apical media pH day 8, vs DMSO. The method, then:
Basal media (BM) consisted of advanced DMEM/F12 containing 10 mM HEPES Invitrogen, 15630-080), 1:100 Glutamax (Invitrogen, 35050-061), and 1:100 penicillin/streptomycin (Invitrogen, 15140-122). Supplemented basal media (SBM) contained 1:100 N2 (Invitrogen, 17502-048), 1:50 B27 (Invitrogen, 12587-010), 1 mM N-acetylcysteine (Sigma, A9165), and 10 nM [Leu15]-gastrin I (Sigma, G9145). Growth factors used included 50 ng per mL mouse EGF (Peprotech, 315-09), 100 ng per mL mouse noggin (Peprotech, 250-38), 500 ng per mL human R-spondin 1 (R&D, 4645-RS), 100 ng per mL mouse Wnt-3a (R&D, 1324-WN), 20 μM. Y-27632 (Tocris, 1254), 10 mM nicotinamide (Sigma, N0636), 500 nM A83-01 (Tocris, 2939), 10 μM SB202190 (Tocris, 1264). Transwells were 0.4 μm pore polyester membrane 24-well Transwell inserts (Corning). Cultures were incubated at 37° C. in 5% CO2.
Human ileum organoids were cultured in WENRNAS (Wnt, EGF, noggin, R-spondin1, Nicotinamide, A83-01, SB202190) and typically grown for 7-12 days before being used to plate monolayer cultures. On day 0, organoid cultures embedded in Matrigel were treated with TrypLE Express to break organoids into small pieces and/or single cells. The cells were resuspended to 0.5×10^6 cells/mL in SBM containing WENRAY (Wnt, EGF, noggin, R-spondin1, A83-01, Y-27632). Following this step, 200 μL of cell suspension was plated into the apical side of a 24-well Transwell (100,000 cells/well) and 600 μL of SBM with WENRAY was added to the basolateral side. Ileum cells were differentiated with ENRA (EGF, noggin, R-spondin 1, A83-01) on day 3. The color of apical compartment turns from pink or orange to yellow due to the increase in NHE3 expression after differentiation.
Each human ileum monolayer culture well was washed twice with fresh SBM on the apical side on day 6 before compound dosing. All compound stocks were 10 mM dissolved in DMSO. Each compound stock was individually mixed with fresh SBM to reach final compound concentration 1 μM and dosed only on the apical side of the monolayer (total volume 200 μl). DMSO at the equivalent concentration was used as the vehicle control. Duplicate wells were dosed for each compound. On day 8, apical media pH was measured by pH electrode, to determine the ability of example compounds to produce sustained inhibition of NHE3 activity in a human monolayer culture system by preventing proton secretion into the apical compartment.

SMILES strings stand for the structures.

As for `Cc1cc(Cl)cc2c1C[C@H](N1CCNCC1)[C@H]2Oc1ccc(S(=O)(=O)NCCOCCOCCNC(=O)NCCCCNC(=O)NCCOCCOCCNS(=O)(=O)c2ccc(O[C@H]3c4cc(Cl)cc(C)c4C[C@@H]3N3CCNCC3)c(F)c2)cc1F` [Example 36, 3-[2-(2-[2-[(4-[[(1S,2S)-6-Chloro-4-methyl-2-(piperazin-1-yl)-2,3-dihydro-1H-inden-1-yl]oxy]-3-fluorobenzene)sulfonamido]ethoxy]ethoxy)ethyl]-1-[4-([[2-(2-[2-[(4-[[(1S,2S)-6-chloro-4-methyl-2-(piperazin-1-yl)-2,3-dihydro-1H-inden-1-yl]oxy]-3-fluorobenzene)sulfonamido]ethoxy]ethoxy)ethyl]carbamoyl]amino)butyl]urea; bis(trifluoroacetic acid)], the inhibition at 1 µM is over 70%. As for `Cc1cc(S(=O)(=O)N2CC[C@@H](COCCOCCNC(=O)NCCCCNC(=O)NCCOCCOC[C@@H]3CCN(S(=O)(=O)c4ccc(O[C@H]5c6cc(Cl)cc(Cl)c6C[C@@H]5N(C)C)c(C)c4)C3)C2)ccc1O[C@H]1c2cc(Cl)cc(Cl)c2C[C@@H]1N(C)C` [Example 45, 3-[2-(2-[[(3R)-1-[(4-[[(1S,2S)-4,6-Dichloro-2-(dimethylamino)-2,3-dihydro-1H-inden-1-yl]oxy]-3-methylbenzene)sulfonyl]pyrrolidin-3-yl]methoxy]ethoxy)ethyl]-1-[4-([[2-(2[[(3R)-1-[(4-[[(1S,2S)-4,6-dichloro-2-(dimethylamino)-2,3-dihydro-1H-inden-1-yl]oxy]-3-methylbenzene)sulfonyl]pyrrolidin-3-yl]methoxy]ethoxy)ethyl]carbamoyl]amino)butyl]urea; bis(trifluoroacetic acid)], the figure is 50 to 70%; as for `Cc1cc(S(=O)(=O)N2CC[C@@H](COc3ccnc(CNC(=O)NCCCCNC(=O)NCc4cc(OC[C@@H]5CCN(S(=O)(=O)c6ccc(O[C@H]7c8cc(Cl)cc(Cl)c8C[C@@H]7N(C)C)c(C)c6)C5)ccn4)c3)C2)ccc1O[C@H]1c2cc(Cl)cc(Cl)c2C[C@@H]1N(C)C` [Example 49, 3-[(4-[[(3R)-1-[(4-[[(1S,2S)-4,6-Dichloro-2-(dimethylamino)-2,3-dihydro-1H-inden-1-yl]oxy]-3-methylbenzene)sulfonyl]pyrrolidin-3-yl]methoxy]pyridin-2-yl)methyl]-1-[4-([[(4-[[(3R)-1-[(4-[[(1S,2S)-4,6-dichloro-2-(dimethylamino)-2,3-dihydro-1H-inden-1-yl]oxy]-3-methylbenzene)sulfonyl]pyrrolidin-3-yl]methoxy]pyridin-2-yl)methyl]carbamoyl]amino)butyl]urea], over 70%. Under `Cc1cc(S(=O)(=O)N[C@H]2CCN(CCOCCNC(=O)NCCCCNC(=O)NCCOCCN3CC[C@H](NS(=O)(=O)c4ccc(O[C@H]5c6cc(Cl)cc(Cl)c6C[C@@H]5N(C)C)c(C)c4)C3)C2)ccc1O[C@H]1c2cc(Cl)cc(Cl)c2C[C@@H]1N(C)C` [Example 52, 3-(2-[2-[(3S)-3-[(4-[[(1S,2S)-4,6-Dichloro-2-(dimethylamino)-2,3-dihydro-1H-inden-1-yl]oxy]-3-methylbenzene)sulfonamido]pyrrolidin-1-yl]ethoxy]ethyl)-1-(4-[[(2-[2-[(3S)-3-[(4-[[(1S,2S)-4,6-dichloro-2-(dimethylamino)-2,3-dihydro-1H-inden-1-yl]oxy]-3-methylbenzene)sulfonamido]pyrrolidin-1-yl]ethoxy]ethyl)carbamoyl]amino]butyl)urea] stands over 70%.

Compound `Cc1cc(S(=O)(=O)N[C@@H]2CCN(CCOCCNC(=O)NCCCCNC(=O)NCCOCCN3CC[C@@H](NS(=O)(=O)c4ccc(O[C@H]5c6cc(Cl)cc(C#N)c6C[C@@H]5N(C)C)c(C)c4)C3)C2)ccc1O[C@H]1c2cc(Cl)cc(C#N)c2C[C@@H]1N(C)C` [Example 55, 3-(2-[2-[(3R)-3-[(4-[[(1S,2S)-6-Chloro-4-cyano-2-(dimethylamino)-2,3-dihydro-1H-inden-1-yl]oxy]-3-methylbenzene)sulfonamido]pyrrolidin-1-yl]ethoxy]ethyl)-1-(4-[[(2-[2-[(3R)-3-[(4-[[(1S,2S)-6-chloro-4-cyano-2-(dimethylamino)-2,3-dihydro-1H-inden-1-yl]oxy]-3-methylbenzene)sulfonamido]pyrrolidin-1-yl]ethoxy]ethyl)carbamoyl]amino]butyl)urea] had an inhibition at 1 µM of under 50%. As for `N#Cc1cc(Cl)cc2c1C[C@H](N1CCNCC1)[C@H]2Oc1ccc(S(=O)(=O)N[C@@H]2CCN(CCOCCNC(=O)NCCCCNC(=O)NCCOCCN3CC[C@@H](NS(=O)(=O)c4ccc(O[C@H]5c6cc(Cl)cc(C#N)c6C[C@@H]5N5CCNCC5)c(F)c4)C3)C2)cc1F` [Example 109, 4-([(1S,2S)-6-Chloro-4-cyano-2-(piperazin-1-yl)-2,3-dihydro-1H-inden-1-yl]oxy)-N—[(R)-1-(20-[(R)-3-[(4-([(1S,2S)-6-chloro-4-cyano-2-(piperazin-1-yl)-2,3-dihydro-1H-inden-1-yl]oxy)-3-fluorophenyl)sulfonamide)pyrrolidin-1-yl]-7,14-dioxo-3,18-dioxa-6,8,13,15-tetraazaicosyl)pyrrolidin-3-yl]-3-fluorobenzenesulfonamide; tetra(trifluoroacetate)], the inhibition at 1 µM was over 70%. Consider `CN(C)[C@H]1CCCN([C@H]2Cc3c(C#N)cc(Cl)cc3[C@@H]2Oc2ccc(S(=O)(=O)NCCOCCOCCNC(=O)NCCCCNC(=O)NCCOCCOCCNS(=O)(=O)c3ccc(O[C@H]4c5cc(Cl)cc(C#N)c5C[C@@H]4N4CCC[C@H](N(C)C)C4)cc3)cc2)C1` [Example 122, 4-([(1S,2S)-6-Chloro-4-cyano-2-[(S)-3-(dimethylamino)piperidin-1-yl]-2,3-dihydro-1H-inden-1-yl]oxy)-N-[26-([4-([(1S,2S)-6-chloro-4-cyano-2-[(S)-3-(dimethylamino)piperidin-1-yl]-2,3-dihydro-1H-inden-1-yl]oxy)phenyl]sulfonamido)-10,17-dioxo-3,6,21,24-tetraoxa-9,11,16,18-tetraazahexacosyl]benzenesulfonamide], for which the inhibition at 1 µM is over 70%.

Regarding `N#Cc1cc(Cl)cc2c1C[C@H](N1CCNCC1)[C@H]2Oc1ccc(S(=O)(=O)NC2CCN(CCOCCNC(=O)NCCCCNC(=O)NCCOCCN3CCC(NS(=O)(=O)c4ccc(O[C@H]5c6cc(Cl)cc(C#N)c6C[C@@H]5N5CCNCC5)cc4)CC3)CC2)cc1` [Example 123, 4-([(1S,2S)-6-Chloro-4-cyano-2-(piperazin-1-yl)-2,3-dihydro-1H-inden-1-yl]oxy)-N-[1-(20-[4-([4-([(1S,2S)-6-chloro-4-cyano-2-(piperazin-1-yl)-2,3-dihydro-1H-inden-1-yl]oxy)phenyl]sulfonamide]piperidin-1-yl)-7,14-dioxo-3,18-dioxa-6,8,13,15-tetraazaicosyl]piperidin-4-yl)benzenesulfonamide], the inhibition at 1 µM was over 70%.

A word on the inhibition: it is the change of the read-out against control, counted positive when it falls. A lower inhibition goes with little suppression.

(Values after patent publication US11242337B2, “Compounds useful for treating gastrointestinal tract disorders” (Ardelyx, Inc., priority 2017, dated 2022).)
